In patent publication US7728012B2, “Carboxamide compounds and their use as calpain inhibitors” (Abbott GmbH & Co. KG, priority 2006, dated 2010):

Experiments:
Format in all cases: biochemical
[1] = target: T1, recombinant human cathepsin S (Homo sapiens, UniProt P25774); assay: Cathepsin S kinetic fluorescence enzyme inhibition assay; settings: selectivity ratio versus calpain I
T1 construct: purchased Calbiochem 219343; host or cells: E. coli
Summary of the method: (§1)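 Cathepsin B (0.25 nM, human liver) with 100 μM Z-Phe-Arg-AMC; L (1 nM, human liver) with 2 μM Z-Phe-Arg-AMC; S (0.5 nM, recombinant) with 20 μM Z-Val-Val-Arg-AMC. pH 6.0 MES buffer, 2.5 mM L-cysteine, room temperature. Kinetic fluorescence (ex 390/em 460 nm); apparent Ki from IC50 by Cheng-Prusoff.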

[2] = target: T2, cathepsin B isolated from human liver (Homo sapiens, UniProt P07858); assay: Cathepsin B kinetic fluorescence enzyme inhibition assay; settings: selectivity ratio versus calpain I
T2 construct: cathepsin B—isolated from human liver; purchased Calbiochem 219362; host or cells: human liver (tissue isolate)
Summary of the method: as §1

[3] = target: T3, calpain-I isolated from human erythrocytes (Homo sapiens, UniProt P07384); assay: Calpain I kinetic fluorescence enzyme inhibition assay; settings: apparent Ki from IC50 by Cheng-Prussoff; average of 2 to 4 dose-effect plots
T3 construct: calpain-I—isolated from human erythrocytes; purchased Calbiochem 208713; host or cells: human erythrocytes (tissue isolate)
T3 sequence (P07384 1-714): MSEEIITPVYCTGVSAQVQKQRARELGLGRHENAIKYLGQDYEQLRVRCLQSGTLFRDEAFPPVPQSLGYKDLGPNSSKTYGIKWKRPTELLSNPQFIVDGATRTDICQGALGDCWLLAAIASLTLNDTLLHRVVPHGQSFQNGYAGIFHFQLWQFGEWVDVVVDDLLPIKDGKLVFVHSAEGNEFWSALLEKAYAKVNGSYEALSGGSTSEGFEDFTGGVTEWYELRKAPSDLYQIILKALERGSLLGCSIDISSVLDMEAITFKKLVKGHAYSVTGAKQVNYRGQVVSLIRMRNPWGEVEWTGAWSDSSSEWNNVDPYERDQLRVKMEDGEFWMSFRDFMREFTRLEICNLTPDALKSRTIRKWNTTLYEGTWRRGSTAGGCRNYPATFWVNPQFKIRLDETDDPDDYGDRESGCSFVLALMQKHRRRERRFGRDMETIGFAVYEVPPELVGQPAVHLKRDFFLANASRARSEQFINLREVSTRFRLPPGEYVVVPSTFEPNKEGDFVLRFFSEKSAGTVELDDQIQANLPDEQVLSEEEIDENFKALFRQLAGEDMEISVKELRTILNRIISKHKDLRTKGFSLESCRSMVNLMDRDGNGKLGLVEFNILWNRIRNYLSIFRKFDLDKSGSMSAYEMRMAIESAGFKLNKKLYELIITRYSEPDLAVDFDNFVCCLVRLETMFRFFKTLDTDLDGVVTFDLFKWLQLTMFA
T3 sequence (P04632 1-268 partner): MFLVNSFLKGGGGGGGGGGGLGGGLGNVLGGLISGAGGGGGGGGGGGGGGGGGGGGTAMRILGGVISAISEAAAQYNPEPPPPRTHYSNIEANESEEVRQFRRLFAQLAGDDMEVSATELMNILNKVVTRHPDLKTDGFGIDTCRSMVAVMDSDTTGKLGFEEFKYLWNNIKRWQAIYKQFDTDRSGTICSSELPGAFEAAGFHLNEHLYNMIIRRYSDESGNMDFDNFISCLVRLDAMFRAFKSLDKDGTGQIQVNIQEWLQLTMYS

[4] = target: T4, cathepsin K activated from recombinant human procathepsin K (Homo sapiens, UniProt P43235); assay: Cathepsin K kinetic fluorescence enzyme inhibition assay; settings: selectivity ratio versus calpain I
T4 construct: purchased Calbiochem 342001; host or cells: E. coli
T4 sequence (P43235 115-329): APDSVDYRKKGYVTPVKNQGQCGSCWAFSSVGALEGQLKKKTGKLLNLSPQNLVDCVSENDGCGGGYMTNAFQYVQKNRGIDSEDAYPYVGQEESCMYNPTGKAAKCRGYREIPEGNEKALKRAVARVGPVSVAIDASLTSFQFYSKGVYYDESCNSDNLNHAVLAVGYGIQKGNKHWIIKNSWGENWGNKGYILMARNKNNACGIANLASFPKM
Method: The following solutions and buffers were employed: • HBS (for 40 ml): 800 μl M HEPES; 2.16 ml 100 mM KCl; 4.8 ml 1M NaCl; 3.59 ml 5% glucose; 60 μl μM MgSO4; 400 μl 100 mM Na pyruvate, 28.19 ml water; pH 7.2-7.5. • lysis buffer (for 20 ml): 400 μl M Tris pH 8.2; 2.74 ml 1M NaCl; 520 μl 0.5M EDTA; 2 ml 10% triton X-100; 0.8 ml (=1:25) CompletePlus (1 tablet/2 ml H2O); 200 μl 100 mM Pefabloc; 13.34 ml water, pH 8.2. • TBST (10×) (for 1 l): 100 mM Tris (12.1 g); 1.5M NaCl (87 g); 1% Tween 20 (10 g), adjusted to pH 8. I Enzyme Inhibition In Vitro: • Testing for blockade of the corresponding enzymic activities was carried out by means of kinetic fluorescence assays (excitation 390 nm, emission 460 nm). • Apparent Ki values were calculated from the experimentally determined IC50 values by the Cheng-Prussoff relation assuming a reversible competitive enzyme inhibition. The Km values of the substrates used under the assay conditions indicated above were: 90 μM (Z-Phe-Arg-AMC, cathepsin B), 10 μM (Z-Gly-Pro-Arg-AMC, cathepsin K), 2 μM (Z-Phe-Arg-AMC, cathepsin L), and 30 μM (Z-Val-Val-Arg-AMC, cathepsin S). • The indicated Ki values are averages of the inhibition constants calculated on the basis of 2 to 4 independent dose-effect plots.
The following assays were used: • 1. Calpain I: • 20 nM calpain-I—isolated from human erythrocytes (Calbiochem #208713), 100 μM Suc-Leu-Tyr-AMC (Bachem #1-1355) as substrate in buffer with 62 mM imidazole, 0.3 mM CaCl2, 0.10% CHAPS, 0.05% BSA, 1 mM DTT at pH 7.3 and room temperature. • 2. Cathepsin B: • 0.25 nM cathepsin B—isolated from human liver (Calbiochem #219362), 100 μM Z-Phe-Arg-AMC (Bachem #I-1160) as substrate 50 mM MES, 2 mM EDTA, 0.05% Brij 35, 2.5 mM L-cysteine, pH 6.0, room temperature. • 3. Cathepsin K: • 3 nM cathepsin K—activated from recombinant human procathepsin K from E. coli (Calbiochem #342001), 10 μM Z-Gly-Pro-Arg-AMC (Biomol #P-142) as substrate in 50 mM MES, 2 mM EDTA, 0.05% Brij 35, 2.5 mM L-cysteine, pH 6.0, room temperature. • 4. Cathepsin L: • 1 nM cathepsin L—isolated from human liver (Calbiochem #219402), 2 μM Z-Phe-Arg-AMC (Bachem #1-1160) as substrate in 50 mM MES, 2 mM EDTA, 0.05% Brij 35, 2.5 mM L-cysteine, pH 6.0, room temperature. • 5. Cathepsin S: • 0.5 nM recombinant human cathepsin S from E. coli (Calbiochem #219343), 20 μM Z-Val-Val-Arg-AMC (Bachem #1-1540) as substrate in 50 mM MES, 2 mM EDTA, 0.05% Brij 35, 2.5 mM L-cysteine, pH 6.0, room temperature. • The results of the in vitro determination are indicated in Table 1. The following abbreviations are used in Table 1: • The “Calpain activity” column, ++ stands for a calpain Ki (Ki(calpain)) of ≦40 nM and + means: 40 nM<Ki(Calpain)≦100 nM. • The “Sel. cat. B” column indicates the Ki(cathepsin B)/Ki(calpain) ratio. In this connection, ++ means a Ki(cathepsin B)/Ki(calpain) ratio of ≧30 and + means 10≦Ki(cathepsin B)/Ki(calpain)<30. • The “Sel. cat. K” column indicates the Ki(cathepsin K)/Ki(calpain) ratio. In this connection, ++ means a Ki(cathepsin K)/Ki(calpain) ratio of ≧30 and + means 10≦Ki(cathepsin K)/Ki(calpain)<30. • The “Sel. cat. L” column indicates the Ki(cathepsin L)/Ki(calpain) ratio. In this connection, ++ means a Ki(cathepsin L)/Ki(calpain) ratio of ≧50 and + means 30≦Ki(cathepsin L)/Ki(calpain)<50. • The “Sel. cat. S” column indicates the Ki(cathepsin S)/Ki(calpain) ratio. In this connection, ++ means a Ki(cathepsin S)/Ki(calpain) ratio of ≧100 and + means 50≦Ki(cathepsin S)/Ki(calpain)<100.

[5] = target: T5, cathepsin L isolated from human liver (Homo sapiens, UniProt P07711); assay: Cathepsin L kinetic fluorescence enzyme inhibition assay; settings: selectivity ratio versus calpain I
T5 construct: cathepsin L—isolated from human liver; purchased Calbiochem 219402; host or cells: human liver (tissue isolate)
Summary of the method: as §1

T5 sequence (P07711 114-333): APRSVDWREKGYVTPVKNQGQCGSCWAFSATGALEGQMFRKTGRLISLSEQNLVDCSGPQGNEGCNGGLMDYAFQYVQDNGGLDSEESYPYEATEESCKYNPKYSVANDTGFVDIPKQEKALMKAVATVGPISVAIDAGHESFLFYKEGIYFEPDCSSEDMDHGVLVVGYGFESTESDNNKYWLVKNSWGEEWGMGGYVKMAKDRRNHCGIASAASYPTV
T1 sequence (P25774 115-331): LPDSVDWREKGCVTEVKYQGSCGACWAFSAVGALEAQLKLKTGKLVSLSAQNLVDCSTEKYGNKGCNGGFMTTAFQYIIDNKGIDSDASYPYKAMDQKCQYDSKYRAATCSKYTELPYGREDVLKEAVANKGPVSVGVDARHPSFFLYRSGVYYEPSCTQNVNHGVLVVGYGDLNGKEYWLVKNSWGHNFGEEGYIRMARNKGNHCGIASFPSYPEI

Row | Compound | Sel cat. S (Ki(cathepsin S)/Ki(calpain) ratio) [1] | Sel cat. B (Ki(cathepsin B)/Ki(calpain) ratio) [2] | Ki [3] [nM] | Sel cat. K (Ki(cathepsin K)/Ki(calpain) ratio) [4] | Sel cat. L (Ki(cathepsin L)/Ki(calpain) ratio) [5]
1 | NC(=O)C(=O)C(Cc1ccccc1)NC(=O)c1cccnc1-n1ccc(-c2ccccc2)n1 (stereo not drawn) [Example 5, N-(3-Amino-1-benzyl-2,3-dioxopropyl)-2-(3-phenyl-1H-pyrazol-1-yl)nicotinamide] | ++ (Ki(cathepsin S)/Ki(calpain) ratio of ≧100) | + (10≦Ki(cathepsin B)/Ki(calpain)<30) | ≤ 40 | + (10≦Ki(cathepsin K)/Ki(calpain)<30) | ++ (Ki(cathepsin L)/Ki(calpain) ratio of ≧50)
2 | NC(=O)C(=O)C(Cc1ccccc1)NC(=O)c1cccnc1-n1ccc(-c2ccccn2)n1 (stereo not drawn) [Example 35, N-(3-Amino-1-benzyl-2,3-dioxopropyl)-2-(3-pyridin-2-yl-1H-pyrazol-1-yl)nicotinamide] | ++ (Ki(cathepsin S)/Ki(calpain) ratio of ≧100) | + (10≦Ki(cathepsin B)/Ki(calpain)<30) | 40 to 100 | + (10≦Ki(cathepsin K)/Ki(calpain)<30) | ++ (Ki(cathepsin L)/Ki(calpain) ratio of ≧50)
3 | NC(=O)C(=O)C(Cc1ccccc1)NC(=O)c1cccnc1-n1ccc(-c2ccc(F)cc2)n1 (stereo not drawn) [Example 38, N-(3-Amino-1-benzyl-2,3-dioxopropyl)-2-[3-(4-fluorophenyl)-1H-pyrazol-1-yl]nicotinamide] | ++ (Ki(cathepsin S)/Ki(calpain) ratio of ≧100) | + (10≦Ki(cathepsin B)/Ki(calpain)<30) | 40 to 100 | + (10≦Ki(cathepsin K)/Ki(calpain)<30) | ++ (Ki(cathepsin L)/Ki(calpain) ratio of ≧50)
4 | COc1ccc(-c2ccn(-c3ncccc3C(=O)NC(Cc3ccccc3)C(=O)C(N)=O)n2)cc1 (stereo not drawn) [Example 48, N-(3-Amino-1-benzyl-2,3-dioxopropyl)-2-[3-(4-methoxyphenyl)-1H-pyrazol-1-yl]nicotinamide] | ++ (Ki(cathepsin S)/Ki(calpain) ratio of ≧100) | + (10≦Ki(cathepsin B)/Ki(calpain)<30) | 40 to 100 | + (10≦Ki(cathepsin K)/Ki(calpain)<30) | ++ (Ki(cathepsin L)/Ki(calpain) ratio of ≧50)
5 | NC(=O)C(=O)C(Cc1ccc(Cl)cc1)NC(=O)c1cccnc1-n1ccc(-c2ccccc2)n1 (stereo not drawn) [Example 50, N-[3-Amino-1-(4-chlorobenzyl)-2,3-dioxopropyl]-2-(3-phenyl-1H-pyrazol-1-yl)nicotinamide] | + (50≦Ki(cathepsin S)/Ki(calpain)<100) | + (10≦Ki(cathepsin B)/Ki(calpain)<30) | 40 to 100 | + (10≦Ki(cathepsin K)/Ki(calpain)<30) | + (30≦Ki(cathepsin L)/Ki(calpain)<50)
6 | NC(=O)C(=O)C(Cc1ccc(OC(F)(F)F)cc1)NC(=O)c1cccnc1-n1ccc(-c2cccc(C(F)(F)F)c2)n1 (stereo not drawn) [Example 134, N-[3-Amino-2,3-dioxo-1-({4-[(trifluoromethyl)oxy]phenyl}methyl)propyl]-2-{3-[3-(trifluoromethyl)phenyl]-1H-pyrazol-1-yl}pyridine-3-carboxamide] | + (50≦Ki(cathepsin S)/Ki(calpain)<100) | ++ (Ki(cathepsin B)/Ki(calpain) ratio of ≧30) | – | ++ (Ki(cathepsin K)/Ki(calpain) ratio of ≧30) | + (30≦Ki(cathepsin L)/Ki(calpain)<50)
7 | N-{3-Amino-1-[(4-fluorophenyl)methyl]-2,3-dioxopropyl}-2-[3-(2-chloro-3-fluorophenyl)-1H-pyrazol-1-yl]pyridine-3-carboxamide [Example 154] | ++ (Ki(cathepsin S)/Ki(calpain) ratio of ≧100) | ++ (Ki(cathepsin B)/Ki(calpain) ratio of ≧30) | – | ++ (Ki(cathepsin K)/Ki(calpain) ratio of ≧30) | ++ (Ki(cathepsin L)/Ki(calpain) ratio of ≧50)
